According to the supplement of paper PMC10307832:

Tests used:
Test in all cases: relative viability (nuclei count vs DMSO), 5 days (fraction); higher = more cells survive
[1] = system: 201T
In short: (§1)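 Lung cancer cell lines were seeded in 1536-well plates and dosed by pin tool the next day, with either a single drug or a fixed anchor-drug dose combined with five library-drug doses (not always all listed) spaced in √10 steps. Five days later, one step fixed the cells and stained their nuclei (final 0.05% Triton X-100, 1% formaldehyde, 1 ug/ml Hoechst), and nuclei were counted on 4× images. Relative viability is the nuclei count in treated wells divided by the count in vehicle wells, and each value is the median of duplicate plates.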

[2] = system: ABC-1
In short: as §1

[3] = system: BEN
In short: as §1

[4] = system: CAL-12T
In short: as §1

[5] = system: H3255
In short: as §1

[6] = system: HARA
In short: as §1

[7] = system: HCC-15
In short: as §1

[8] = system: HCC-827
In short: as §1

[9] = system: LC-2-ad
In short: as §1

[10] = system: LCLC-103H
In short: as §1

[11] = system: LOU-NH91
In short: as §1

[12] = system: LU99A
In short: as §1

[13] = system: NCI-H1355
In short: as §1

[14] = system: NCI-H1666
In short: as §1

[15] = system: NCI-H1755
In short: as §1

[16] = system: NCI-H1993
In short: as §1

[17] = system: NCI-H2085
In short: as §1

[18] = system: NCI-H2170
In short: as §1

[19] = system: NCI-H2342
In short: as §1

[20] = system: NCI-H23
In short: as §1

[21] = system: NCI-H727
In short: as §1

[22] = system: PC-3 [JPC-3]
In short: as §1

[23] = system: RERF-LC-KJ
In short: as §1

[24] = system: NCI-H2228
In short: as §1

[25] = system: SK-LU-1
In short: as §1

Nc1cccc2c1CN(C1CCC(=O)NC1=O)C2=O (centres undefined) [Lenalidomide] + NC(=O)Nc1cc(-c2cccc(F)c2)sc1C(=O)N[C@H]1CCCNC1 [AZD7762] (partner 0.2 µM)
relative viability ([1]; first compound 0.253 µM): 0.594
relative viability ([1]; first compound 0.8 µM): 0.848
relative viability ([1]; first compound 2.53 µM): 0.617
relative viability ([1]; first compound 8 µM): 0.529
relative viability ([2]; first compound 0.253 µM): 0.791
relative viability ([2]; first compound 0.8 µM): 0.59
relative viability ([2]; first compound 2.53 µM): 0.929
relative viability ([2]; first compound 8 µM): 0.856
relative viability ([3]; first compound 0.253 µM): 0.783
relative viability ([3]; first compound 0.8 µM): 0.503
relative viability ([3]; first compound 2.53 µM): 0.701
relative viability ([3]; first compound 8 µM): 0.563
relative viability ([4]; first compound 0.253 µM): 0.668
relative viability ([4]; first compound 0.8 µM): 0.564
relative viability ([4]; first compound 2.53 µM): 0.737
relative viability ([4]; first compound 8 µM): 0.666
relative viability ([5]; first compound 0.253 µM): 0.936
relative viability ([5]; first compound 0.8 µM): 0.747
relative viability ([5]; first compound 2.53 µM): 0.93
relative viability ([5]; first compound 8 µM): 0.823
relative viability ([6]; first compound 0.253 µM): 0.173
relative viability ([6]; first compound 2.53 µM): 0.296
relative viability ([6]; first compound 8 µM): 0.434
relative viability ([7]; first compound 0.253 µM): 1.11
relative viability ([7]; first compound 0.8 µM): 1.22
relative viability ([7]; first compound 2.53 µM): 1.35
relative viability ([7]; first compound 8 µM): 1.36
relative viability ([8]; first compound 0.253 µM): 0.264
relative viability ([8]; first compound 0.8 µM): 0.325
relative viability ([8]; first compound 2.53 µM): 0.255
relative viability ([8]; first compound 8 µM): 0.206
relative viability ([9]; first compound 0.253 µM): 0.902
relative viability ([9]; first compound 0.8 µM): 0.928
relative viability ([9]; first compound 2.53 µM): 0.865
relative viability ([9]; first compound 8 µM): 0.94
relative viability ([10]; first compound 0.253 µM): 0.755
relative viability ([10]; first compound 0.8 µM): 0.796
relative viability ([10]; first compound 2.53 µM): 0.786
relative viability ([10]; first compound 8 µM): 0.589
relative viability ([11]; first compound 0.253 µM): 0.781
relative viability ([11]; first compound 0.8 µM): 0.702
relative viability ([11]; first compound 2.53 µM): 0.766
relative viability ([11]; first compound 8 µM): 0.647
relative viability ([12]; first compound 0.253 µM): 0.311
relative viability ([12]; first compound 0.8 µM): 0.341
relative viability ([12]; first compound 2.53 µM): 0.397
relative viability ([12]; first compound 8 µM): 0.257
relative viability ([13]; first compound 0.253 µM): 0.798
relative viability ([13]; first compound 0.8 µM): 0.59
relative viability ([13]; first compound 2.53 µM): 0.765
relative viability ([13]; first compound 8 µM): 0.696
relative viability ([14]; first compound 0.253 µM): 0.895
relative viability ([14]; first compound 0.8 µM): 0.716
relative viability ([14]; first compound 2.53 µM): 0.985
relative viability ([14]; first compound 8 µM): 0.874
relative viability ([15]; first compound 0.253 µM): 0.458
relative viability ([15]; first compound 0.8 µM): 0.498
relative viability ([15]; first compound 2.53 µM): 0.452
relative viability ([15]; first compound 8 µM): 0.454
relative viability ([16]; first compound 0.253 µM): 0.587
relative viability ([16]; first compound 0.8 µM): 0.646
relative viability ([16]; first compound 2.53 µM): 0.702
relative viability ([16]; first compound 8 µM): 0.539
relative viability ([17]; first compound 0.253 µM): 0.991
relative viability ([17]; first compound 0.8 µM): 1.02
relative viability ([17]; first compound 2.53 µM): 0.982
relative viability ([17]; first compound 8 µM): 0.919
relative viability ([18]; first compound 0.253 µM): 0.861
relative viability ([18]; first compound 0.8 µM): 0.703
relative viability ([18]; first compound 2.53 µM): 0.976
relative viability ([18]; first compound 8 µM): 0.739
relative viability ([19]; first compound 0.253 µM): 0.494
relative viability ([19]; first compound 0.8 µM): 0.402
relative viability ([19]; first compound 2.53 µM): 0.529
relative viability ([19]; first compound 8 µM): 0.449
relative viability ([20]; first compound 0.253 µM): 0.253
relative viability ([20]; first compound 2.53 µM): 0.22
relative viability ([20]; first compound 8 µM): 0.229
relative viability ([21]; first compound 0.253 µM): 0.655
relative viability ([21]; first compound 0.8 µM): 0.574
relative viability ([21]; first compound 2.53 µM): 0.555
relative viability ([21]; first compound 8 µM): 0.709
relative viability ([22]; first compound 0.253 µM): 0.888
relative viability ([22]; first compound 0.8 µM): 0.467
relative viability ([22]; first compound 2.53 µM): 0.944
relative viability ([22]; first compound 8 µM): 0.667
relative viability ([23]; first compound 0.253 µM): 1.01
relative viability ([23]; first compound 0.8 µM): 0.319
relative viability ([23]; first compound 2.53 µM): 1.18
relative viability ([23]; first compound 8 µM): 0.82

Nc1cccc2c1CN(C1CCC(=O)NC1=O)C2=O (centres undefined) [Lenalidomide] + CC(=O)Nc1cccc(-n2c(=O)n(C3CC3)c(=O)c3c(Nc4ccc(I)cc4F)n(C)c(=O)c(C)c32)c1 [Trametinib] (partner 0.02 µM)
relative viability ([1]; first compound 0.253 µM): 0.719
relative viability ([1]; first compound 0.8 µM): 0.754
relative viability ([1]; first compound 2.53 µM): 0.762
relative viability ([1]; first compound 8 µM): 0.713
relative viability ([3]; first compound 0.253 µM): 1.1
relative viability ([3]; first compound 0.8 µM): 1.07
relative viability ([3]; first compound 2.53 µM): 1.18
relative viability ([3]; first compound 8 µM): 0.913
relative viability ([4]; first compound 0.253 µM): 0.371
relative viability ([4]; first compound 0.8 µM): 0.292
relative viability ([4]; first compound 2.53 µM): 0.431
relative viability ([4]; first compound 8 µM): 0.306
relative viability ([5]; first compound 0.253 µM): 0.547
relative viability ([5]; first compound 0.8 µM): 0.624
relative viability ([5]; first compound 2.53 µM): 0.661
relative viability ([5]; first compound 8 µM): 0.541
relative viability ([6]; first compound 0.253 µM): 0.715
relative viability ([6]; first compound 2.53 µM): 0.542
relative viability ([6]; first compound 8 µM): 1.04
relative viability ([7]; first compound 0.253 µM): 0.412
relative viability ([7]; first compound 0.8 µM): 0.427
relative viability ([7]; first compound 2.53 µM): 0.377
relative viability ([7]; first compound 8 µM): 0.334
relative viability ([8]; first compound 0.253 µM): 0.462
relative viability ([8]; first compound 0.8 µM): 0.594
relative viability ([8]; first compound 2.53 µM): 0.518
relative viability ([8]; first compound 8 µM): 0.52
relative viability ([9]; first compound 0.253 µM): 0.868
relative viability ([9]; first compound 0.8 µM): 0.943
relative viability ([9]; first compound 2.53 µM): 0.972
relative viability ([9]; first compound 8 µM): 0.968
relative viability ([10]; first compound 0.253 µM): 0.687
relative viability ([10]; first compound 0.8 µM): 0.623
relative viability ([10]; first compound 2.53 µM): 0.656
relative viability ([10]; first compound 8 µM): 0.617
relative viability ([11]; first compound 0.253 µM): 0.786
relative viability ([11]; first compound 0.8 µM): 0.78
relative viability ([11]; first compound 2.53 µM): 0.771
relative viability ([11]; first compound 8 µM): 0.679
relative viability ([12]; first compound 0.253 µM): 0.509
relative viability ([12]; first compound 0.8 µM): 0.537
relative viability ([12]; first compound 2.53 µM): 0.644
relative viability ([12]; first compound 8 µM): 0.425
relative viability ([13]; first compound 0.253 µM): 0.431
relative viability ([13]; first compound 0.8 µM): 0.316
relative viability ([13]; first compound 2.53 µM): 0.402
relative viability ([13]; first compound 8 µM): 0.267
relative viability ([14]; first compound 0.253 µM): 0.859
relative viability ([14]; first compound 0.8 µM): 0.765
relative viability ([14]; first compound 2.53 µM): 0.93
relative viability ([14]; first compound 8 µM): 0.784
relative viability ([15]; first compound 0.253 µM): 0.729
relative viability ([15]; first compound 0.8 µM): 0.806
relative viability ([15]; first compound 2.53 µM): 0.766
relative viability ([15]; first compound 8 µM): 0.63
relative viability ([16]; first compound 0.253 µM): 0.491
relative viability ([16]; first compound 0.8 µM): 0.503
relative viability ([16]; first compound 2.53 µM): 0.474
relative viability ([16]; first compound 8 µM): 0.518
relative viability ([17]; first compound 0.253 µM): 0.507
relative viability ([17]; first compound 0.8 µM): 0.405
relative viability ([17]; first compound 2.53 µM): 0.515
relative viability ([17]; first compound 8 µM): 0.464
relative viability ([18]; first compound 0.253 µM): 0.933
relative viability ([18]; first compound 0.8 µM): 0.886
relative viability ([18]; first compound 2.53 µM): 0.954
relative viability ([18]; first compound 8 µM): 0.823
relative viability ([24]; first compound 0.253 µM): 0.629
relative viability ([24]; first compound 0.8 µM): 0.315
relative viability ([24]; first compound 2.53 µM): 0.695
relative viability ([24]; first compound 8 µM): 0.363
relative viability ([19]; first compound 0.253 µM): 0.796
relative viability ([19]; first compound 0.8 µM): 0.894
relative viability ([19]; first compound 2.53 µM): 0.739
relative viability ([19]; first compound 8 µM): 0.692
relative viability ([20]; first compound 0.253 µM): 0.398
relative viability ([20]; first compound 2.53 µM): 0.426
relative viability ([20]; first compound 8 µM): 0.412
relative viability ([21]; first compound 0.253 µM): 0.383
relative viability ([21]; first compound 0.8 µM): 0.378
relative viability ([21]; first compound 2.53 µM): 0.35
relative viability ([21]; first compound 8 µM): 0.376
relative viability ([22]; first compound 0.253 µM): 0.705
relative viability ([22]; first compound 0.8 µM): 0.681
relative viability ([22]; first compound 2.53 µM): 0.731
relative viability ([22]; first compound 8 µM): 0.743
relative viability ([23]; first compound 0.253 µM): 0.875
relative viability ([23]; first compound 0.8 µM): 0.886
relative viability ([23]; first compound 2.53 µM): 0.915
relative viability ([23]; first compound 8 µM): 0.85
relative viability ([25]; first compound 0.253 µM): 0.515
relative viability ([25]; first compound 0.8 µM): 0.443
relative viability ([25]; first compound 2.53 µM): 0.596
relative viability ([25]; first compound 8 µM): 0.432
